This note sets out measurements from ChEMBL document CHEMBL1201862, “PubChem BioAssay data set” (2004).

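Exposure lasted 48 hours, with cells grown in 96-well plates and compounds tested at five concentrations. At the GI50, growth is halved.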 The source made the active and inactive calls. Cut-off read from the data, not from the text of the source: active = GI50 up to about 1.1 µM and inactive = higher.

Holding throughout (test): growth of human tumour cells (NCI), 48 h
Assay [1] relates to UACC-62.
Assay [2] has as its system KM12.
For assay [3], the system named is SNB-75.
Assay [4] concerns MCF7.
For assay [5], the system named is A498.
For assay [6], the system named is OVCAR-8.
The subject of assay [7] is EKVX.
Assay [8] has as its system NCI-H23.
Assay [9] relates to NCI-H226.
Assay [10] relates to CAKI-1.
Assay [11] relates to RPMI-8226.
Assay [12] relates to Hs-578T.
Assay [13] concerns HCT-116.
The subject of assay [14] is SK-MEL-5.
Assay [15] deals with MDA-N.
Assay [16] deals with SNB-19.
Assay [17] concerns SW-620.
The test system of assay [18] is OVCAR-3.
Assay [19] relates to CCRF-CEM.
The test system of assay [20] is HL-60.

In the case of `O=C1c2cccc(O)c2C(=O)c2c(OC3OC(CO)C(O)C(O)C3O)cccc21` (stereo unspecified), the GI50 in [1] was 49.8 µM (inactive); in assay [2] it was 30.3 µM (inactive); in [3], 24 µM (inactive); in assay [4] it was 30.1 µM (inactive); in [5], > 100 µM (inactive); in [6], 31.8 µM (inactive). In addition, the GI50 in assay [7] is 32.7 µM (inactive); in [8] it was 15.3 µM (inactive); in [9], > 100 µM (inactive); in [10], 55.5 µM (inactive); in assay [11], 23.9 µM (inactive); in [12], 17.8 µM (inactive). Further, the GI50 was 19.8 µM (inactive) in assay [13]; 16.5 µM (inactive) in assay [14]; 28.6 µM (inactive) in assay [15]; 33.7 µM (inactive) in assay [16]; 16.9 µM (inactive) in [17]; 31.4 µM (inactive) in [18].
Take `CC(=O)N1C(Nc2nccs2)CCN1c1ccccc1` (stereo unspecified): the GI50 in assay [19], in assay [3], in assay [4], in assay [6], in assay [7] and in assay [8] was > 10 µM (inactive) each time. The GI50 in [9], in [10], in assay [11], in assay [12], in assay [13] and in assay [14] was > 10 µM (inactive) in each case. The GI50 in [15], in [16], in assay [20], in assay [17] and in [18] was > 10 µM (inactive) throughout.
Consider `CCCC(=O)OC1CC(n2cc(F)c(=O)[nH]c2=O)OC1COP(=O)(OCC(Cl)(Cl)Cl)OCC(Cl)(Cl)Cl` (stereo unspecified), for which the GI50 in assay [1] is 2.06 µM (inactive); in assay [2], 19.1 µM (inactive); in assay [19], 0.372 µM (active); in assay [3], 8.04 µM (inactive); in assay [4], 0.0697 µM (active); in assay [6], 0.925 µM (active). In addition, the GI50 in [7] is 43.8 µM (inactive); in [8], 11 µM (inactive); in assay [9], 65.2 µM (inactive); in assay [10], 0.283 µM (active); in assay [11], 1.47 µM (inactive); in assay [12] it was 13.9 µM (inactive). The GI50 was 3.18 µM (inactive) in [13]; 2.44 µM (inactive) in assay [14]; 7.01 µM (inactive) in [15]; 3.15 µM (inactive) in assay [16]; 10.8 µM (inactive) in assay [20]; 19.9 µM (inactive) in [17]. The GI50 in assay [18] was 4.24 µM (inactive).
`C/C=C\C(CC(=O)NCCc1c[nH]c2ccccc12)CC(=O)OC` (stereo unspecified): the GI50 in assay [1], in assay [2], in [3], in [4], in [5] and in assay [6] was > 100 µM (inactive) throughout. Further, the GI50 in assay [7], in assay [8], in [10], in assay [11], in assay [12] and in assay [13] was > 100 µM (inactive) each time. Besides, the GI50 in assay [14], in assay [15], in assay [16], in assay [17] and in assay [18] was > 100 µM (inactive) each time.
